# Experimental data: US8362000B2, “Azetidinyl diamides as monoacylglycerol lipase inhibitors” (Janssen Pharmaceutica NV, priority 2009, dated 2013)
# Where a chain is given by its changes, count along the chain named. Read-outs that look alike come from different tables or passages of the source.
# Assays:
# MGL = target: T1, MGL (Rattus norvegicus, UniProt Q8R431); experiment: 2-AG accumulation assay in rat brain homogenate; format: biochemical; conditions: rat brain homogenate, 2-AG accumulation as percent of vehicle; for 2-AG accumulation, % of vehicle control at 0.01 µM: compound 0.01 μM, read-out: Rat Brain 2AG % VehCntrl (%) @ 0.01 μM; for 2-AG accumulation, % of vehicle control at 0.1 µM: compound 0.1 μM, read-out: Rat Brain 2AG % VehCntrl (%) @ 0.1 μM; for 2-AG accumulation, % of vehicle control at 1 µM: compound 1 μM, read-out: Rat Brain 2AG % VehCntrl (%) @ 1 μM; for 2-AG accumulation, % of vehicle control at 10 µM: compound 10 μM, read-out: Rat Brain 2AG % VehCntrl (%) @ 10 μM
# T1 construct: one g rat brain was homogenized using a Polytron homogenizer; from tissue; host or cells: rat brain homogenate
# T1 sequence (Q8R431 1-303): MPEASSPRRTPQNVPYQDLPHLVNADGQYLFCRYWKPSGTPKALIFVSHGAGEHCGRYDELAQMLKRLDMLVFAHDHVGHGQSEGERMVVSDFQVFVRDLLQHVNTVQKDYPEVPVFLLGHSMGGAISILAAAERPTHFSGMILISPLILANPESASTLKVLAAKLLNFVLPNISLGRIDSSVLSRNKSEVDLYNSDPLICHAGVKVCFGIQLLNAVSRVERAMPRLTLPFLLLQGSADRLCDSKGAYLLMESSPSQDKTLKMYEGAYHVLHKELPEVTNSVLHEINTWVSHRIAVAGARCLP
# mutant MGL = target: T2, mutant MGL (Homo sapiens, UniProt Q99685, L169S/L176S); experiment: MGL ThermoFluor assay - mutant; format: binding
# T2 sequence (Q99685 1-303 L169S/L176S): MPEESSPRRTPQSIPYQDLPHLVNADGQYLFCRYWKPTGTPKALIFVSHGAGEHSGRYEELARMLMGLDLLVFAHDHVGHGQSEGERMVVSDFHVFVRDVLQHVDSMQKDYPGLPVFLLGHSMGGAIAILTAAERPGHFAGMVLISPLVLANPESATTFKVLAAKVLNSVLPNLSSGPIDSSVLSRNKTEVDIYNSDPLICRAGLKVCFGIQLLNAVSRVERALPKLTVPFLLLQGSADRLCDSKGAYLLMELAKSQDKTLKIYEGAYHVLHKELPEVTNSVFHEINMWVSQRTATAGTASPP
# [1] = test system: CFA-induced paw radiant heat hypersensitivity; experiment: CFA-induced paw radiant heat hypersensitivity; format: in vivo, rat; conditions: Rattus norvegicus, po, 30 mg/kg p.o., HPβCD, last time point 180 or 300 min
# Procedure: Each rat was placed in a test chamber on a warm glass surface and allowed to acclimate for approximately 10 min. A radiant thermal stimulus (beam of light) was then focused through the glass onto the plantar surface of each hind paw in turn. The thermal stimulus was automatically shut off by a photoelectric relay when the paw was moved or when the cut-off time was reached (20 sec for radiant heat at ˜5 amps). An initial (baseline) response latency to the thermal stimulus was recorded for each animal prior to the injection of complete Freund's adjuvant (CFA). […] Immediately following the post-CFA latency assessment, the indicated test compound or vehicle was administered orally.
# The percent reversal (% R) of hypersensitivity was calculated in one of two different ways: 1) using group mean values or 2) using individual animal values. More specifically:
# Method 2. For some compounds, the % R of hypersensitivity was calculated separately for each animal according to the following formula: % reversal=[(individual treatment response−individual CFA response)/(individual baseline response−individual CFA response)]×100. Results are given as a mean of the maximum % reversal values calculated for each individual animal.
# [2] = target: T3, purified wild type MGL (wt-MGLL 6H-11-313) (Homo sapiens, UniProt Q99685)
# T3 sequence (Q99685 1-303): T2 sequence (Q99685 1-303 L169S/L176S) with S169L, S176L
# [3] = ThermoFluor concentration-response, read-out: MGL mutant ThermoFluor Kd
# [4] = group mean values, read-out: CFA thermal hypersensitivity Method 1: peak % reversal
# [5] = individual animal values, read-out: CFA thermal hypersensitivity Method 2: peak % reversal
# [6] = ThermoFluor thermal stability binding assay, read-out: MGL mutant ThermoFluor Kd
Compound,"2-AG accumulation, % of vehicle control at 0.01 µM (MGL) [%]","2-AG accumulation, % of vehicle control at 0.1 µM (MGL) [%]","2-AG accumulation, % of vehicle control at 1 µM (MGL) [%]","2-AG accumulation, % of vehicle control at 10 µM (MGL) [%]",Kd (mutant MGL; [3]) [µM],IC50 [2] [nM],Kd (mutant MGL; [6]) [µM],"Kd (mutant MGL; ThermoFluor, compound concentration measured by qNMR, read-out: MGL mutant ThermoFluor qKd (μM) (using qNMR conc.)) [µM]","inhibition in vivo at 30 mg/kg [1, 4] [%]","inhibition in vivo at 30 mg/kg [1, 5] [%]"
"O=C(c1ccccc1)N1CCN(C2CN(C(=O)c3ccc(-c4ccccc4)cc3)C2)CC1 [Cpd 5, 1-[1-(Biphenyl-4-ylcarbonyl)azetidin-3-yl]-4-(phenylcarbonyl)piperazine]",122,123,156,279,0.0548,523,–,–,96.6,100
"O=C(c1ccc(-c2ccccc2)cc1)N1CC(N2CCN(C(=O)c3cscn3)CC2)C1 [Cpd 7, 1-[1-(Biphenyl-4-ylcarbonyl)azetidin-3-yl]-4-(1,3-thiazol-4-ylcarbonyl)piperazine]",–,216,238,568,0.0466,131,–,–,77.8,76.2
"O=C(c1ccc(-c2ccccc2)cc1)N1CC(N2CCN(C(=O)c3nccs3)CC2)C1 [Cpd 9, 1-[1-(Biphenyl-4-ylcarbonyl)azetidin-3-yl]-4-(1,3-thiazol-2-ylcarbonyl)piperazine]",99,184,529,–,0.00248,17.4,–,–,75.4,77.4
"O=C(c1ccccc1)N1CCN(C2CN(C(=O)c3ccc(-c4ccc(Cl)c(Cl)c4)cc3)C2)CC1 [Cpd 39, 1-{1-[(3′,4′-Dichlorobiphenyl-4-yl)carbonyl]azetidin-3-yl}-4-(phenylcarbonyl)piperazine]",–,173,168,277,0.025,14.7,–,–,39.1,39.7
"O=C(c1ccccc1)N1CCN(C2CN(C(=O)c3ccc(-c4ccc(Cl)c(C(F)(F)F)c4)cc3)C2)CC1 [Cpd 232, 1-(1-{[4′-Chloro-3′-(trifluoromethyl)biphenyl-4-yl]carbonyl}azetidin-3-yl)-4-(phenylcarbonyl)piperazine]",–,–,152,427,–,82.9,–,–,9.6,8
"O=C(c1ccc2oc(-c3ccccc3)nc2c1)N1CC(N2CCN(C(=O)c3nccs3)CC2)C1 [Cpd 317, 2-Phenyl-5-({3-[4-(1,3-thiazol-2-ylcarbonyl)piperazin-1-yl]azetidin-1-yl}carbonyl)-1,3-benzoxazole]",–,–,417,–,–,–,–,–,43,–
"O=C(c1nccs1)N1CCN(C2CN(C(=O)c3sc4cc(Br)ccc4c3Cl)C2)CC1 [Cpd 326, 1-{1-[(6-Bromo-3-chloro-1-benzothiophen-2-yl)carbonyl]azetidin-3-3yl}-4-(1,3-thiazol-2-ylcarbonyl)piperazine]",–,–,–,–,–,< 5,0.0004,–,17.3,17.5
O=C(c1nccs1)N1CCN(C2CN(C(=O)c3sc4c(F)c(C(F)(F)F)ccc4c3Cl)C2)CC1 [Cpd 650],–,–,960,–,–,6,–,–,29.9,–
Cc1cn(-c2ccccc2)c2ccc(C(=O)N3CC(N4CCN(C(=O)c5nccs5)CC4)C3)cc12 [Cpd 1054],–,–,–,–,–,5,0.001,0.001,27.6,–

# Second part, led by results:
"2-AG accumulation, % of vehicle control at 0.01 µM (MGL) [%]","2-AG accumulation, % of vehicle control at 0.1 µM (MGL) [%]","2-AG accumulation, % of vehicle control at 1 µM (MGL) [%]","2-AG accumulation, % of vehicle control at 10 µM (MGL) [%]",Kd (mutant MGL; [3]) [µM],IC50 [2] [nM],Kd (mutant MGL; [6]) [µM],"Kd (mutant MGL; ThermoFluor, compound concentration measured by qNMR, read-out: MGL mutant ThermoFluor qKd (μM) (using qNMR conc.)) [µM]",Compound,"inhibition in vivo at 30 mg/kg [1, 4] [%]","inhibition in vivo at 30 mg/kg [1, 5] [%]"
–,–,760,–,–,–,0.001,–,"Cc1cn(-c2ccc(F)cc2)c2ccc(C(=O)N3CC(N4CCN(C(=O)c5nccs5)CC4)C3)cc12 [Cpd 1088, 1-(4-Fluorophenyl)-3-methyl-5-({3-[4-(1,3-thiazol-2-ylcarbonyl)piperazin-1-yl]azetidin-1-yl}carbonyl)-1H-indole]",35.3,–
–,–,784,–,–,–,–,–,"O=C(c1ccc2c(cnn2-c2ccc(F)c(F)c2)c1)N1CC(N2CCN(C(=O)c3nccs3)CC2)C1 [Cpd 1106, 1-(3,4-Difluorophenyl)-5-({3-[4-(1,3-thiazol-2-ylcarbonyl)piperazin-1-yl]azetidin-1-yl}carbonyl)-1H-indazole]",45,–
–,–,–,–,0.037,19,–,–,"O=C(c1ccc2nc(-c3ccccc3)sc2c1)N1CC(N2CCN(C(=O)c3nccs3)CC2)C1 [Cpd 1125, 2-Phenyl-6-({3-[4-(1,3-thiazol-2-ylcarbonyl)piperazin-1-yl]azetidin-1-yl}carbonyl)-1,3-benzothiazole]",64.5,90.3
–,–,–,–,0.002,23,–,–,"Cn1cc(-c2ccccc2)c2ccc(C(=O)N3CC(N4CCN(C(=O)c5nccs5)CC4)C3)cc21 [Cpd 1132, 1-Methyl-3-phenyl-6-({3-[4-(1,3-thiazol-2-ylcarbonyl)piperazin-1-yl]azetidin-1-yl}carbonyl)-1H-indole]",0,–
–,–,–,–,0.015,66,–,–,"O=C(c1ccc2c(ccn2-c2ncccn2)c1)N1CC(N2CCN(C(=O)c3nccs3)CC2)C1 [Cpd 1174, 1-Pyrimidin-2-yl-5-({3-[4-(1,3-thiazol-2-ylcarbonyl)piperazin-1-yl]azetidin-1-yl}carbonyl)-1H-indole]",13.6,–
–,–,–,–,0.001,< 5,–,–,"O=C(c1ccc2c(-c3cccc(C(F)(F)F)c3)c[nH]c2c1)N1CC(N2CCN(C(=O)c3nccs3)CC2)C1 [Cpd 1341, 6-({3-[4-(1,3-Thiazol-2-ylcarbonyl)piperazin-1-yl]azetidin-1-yl}carbonyl)-3-[3-(trifluoromethyl)phenyl]-1H-indole]",7.5,–
–,–,–,–,0.002,< 5,–,–,"O=C(c1ccc2c(ccn2-c2ccc(C(F)(F)F)cc2)c1)N1CC(N2CCN(C(=O)c3nccs3)CC2)C1 [Cpd 1357, 5-({3-[4-(1,3-Thiazol-2-ylcarbonyl)piperazin-1-yl]azetidin-1-yl}carbonyl)-1-[4-(trifluoromethyl)phenyl]-1H-indole]",51,46.1
–,–,–,–,0.007,< 5,–,–,"O=C(c1ccc2c(ccn2-c2ccc(F)cc2)c1)N1CC(N2CCN(C(=O)c3cscn3)CC2)C1 [Cpd 1358, 1-(4-Fluorophenyl)-5-({3-[4-(1,3-thiazol-4-ylcarbonyl)piperazin-1-yl]azetidin-1-yl}carbonyl)-1H-indole]",25.4,–
–,–,–,–,0.008,< 5,–,–,"O=C(c1ccc2c(ccn2-c2ccc(C(F)(F)F)cc2)c1)N1CC(N2CCN(C(=O)c3cscn3)CC2)C1 [Cpd 1359, 5-({3-[4-(1,3-Thiazol-4-ylcarbonyl)piperazin-1-yl]azetidin-1-yl}carbonyl)-1-[4-(trifluoromethyl)phenyl]-1H-indole]",5.1,12.7
